Our source for the DC50 values is patent US12643903B2, “Bifunctional compounds for degradation of EGFR and related methods of use” (BeiGene, Ltd., priority 2020, dated 2026).

Molecules are shown by their SMILES.

Usually DC50 stands for the concentration giving 50% degradation. Lower therefore signals degradation at low concentration.

What all share (format): cell-based
Common to all, as to settings: 16 h treatment, EGFR degradation by HTRF
In general terms: In TR-FRET formats the signal depends on donor and acceptor labels being close together.

For assay [1], the target named is T1, EGFR (Homo sapiens, UniProt P00533, DEL746-750).
T1 construct: endogenous in cells; host or cells: HCC827
T1 sequence (P00533 with tags, fused parts or gaps DEL746-750): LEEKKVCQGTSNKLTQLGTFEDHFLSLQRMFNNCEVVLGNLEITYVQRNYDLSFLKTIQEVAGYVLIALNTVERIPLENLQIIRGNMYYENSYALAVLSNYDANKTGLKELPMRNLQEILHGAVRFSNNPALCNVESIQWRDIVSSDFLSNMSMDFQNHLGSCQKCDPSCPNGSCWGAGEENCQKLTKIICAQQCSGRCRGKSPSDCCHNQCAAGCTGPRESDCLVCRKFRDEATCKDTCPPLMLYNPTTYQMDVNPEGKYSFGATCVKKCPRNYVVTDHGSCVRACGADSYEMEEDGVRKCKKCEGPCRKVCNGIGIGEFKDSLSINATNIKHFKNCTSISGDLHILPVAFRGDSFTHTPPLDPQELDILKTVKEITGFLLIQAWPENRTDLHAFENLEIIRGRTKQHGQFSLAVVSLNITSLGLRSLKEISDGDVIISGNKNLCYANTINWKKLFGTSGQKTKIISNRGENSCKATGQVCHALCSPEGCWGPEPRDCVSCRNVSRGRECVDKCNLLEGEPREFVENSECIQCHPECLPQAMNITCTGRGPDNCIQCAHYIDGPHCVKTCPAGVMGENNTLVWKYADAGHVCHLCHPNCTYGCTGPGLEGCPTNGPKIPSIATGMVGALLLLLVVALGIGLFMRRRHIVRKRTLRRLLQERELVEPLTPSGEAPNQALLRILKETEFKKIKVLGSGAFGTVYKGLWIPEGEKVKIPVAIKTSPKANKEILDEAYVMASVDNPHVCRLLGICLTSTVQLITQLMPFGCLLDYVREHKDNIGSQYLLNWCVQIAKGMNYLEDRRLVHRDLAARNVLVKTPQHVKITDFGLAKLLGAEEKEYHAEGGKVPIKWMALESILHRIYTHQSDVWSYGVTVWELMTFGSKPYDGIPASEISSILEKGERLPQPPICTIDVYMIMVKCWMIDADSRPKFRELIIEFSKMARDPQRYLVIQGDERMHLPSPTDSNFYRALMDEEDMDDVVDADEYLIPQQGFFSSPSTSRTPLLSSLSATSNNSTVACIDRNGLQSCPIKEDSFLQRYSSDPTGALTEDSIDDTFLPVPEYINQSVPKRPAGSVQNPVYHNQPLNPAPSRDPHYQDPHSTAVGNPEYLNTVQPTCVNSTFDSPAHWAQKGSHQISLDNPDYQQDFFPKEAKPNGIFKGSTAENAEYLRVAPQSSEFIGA
T1 sequence (Q96SW2 whole entry partner): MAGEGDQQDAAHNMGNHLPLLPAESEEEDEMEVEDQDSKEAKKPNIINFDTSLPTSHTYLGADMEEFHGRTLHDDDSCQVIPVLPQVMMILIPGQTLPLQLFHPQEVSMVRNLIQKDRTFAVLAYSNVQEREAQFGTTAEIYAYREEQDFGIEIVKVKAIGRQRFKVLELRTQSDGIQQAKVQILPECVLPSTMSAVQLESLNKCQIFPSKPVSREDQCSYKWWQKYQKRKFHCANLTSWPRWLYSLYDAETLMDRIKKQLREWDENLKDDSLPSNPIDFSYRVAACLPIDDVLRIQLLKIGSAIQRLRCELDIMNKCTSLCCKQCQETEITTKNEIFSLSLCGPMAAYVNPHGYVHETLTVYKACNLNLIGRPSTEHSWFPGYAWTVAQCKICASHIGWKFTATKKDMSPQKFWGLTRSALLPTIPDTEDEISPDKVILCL
As to the kind of experiment: Cell Degradation 2: EGFR degradation in HCC827 cells, HTRF assay. The procedure, abridged:
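DC50 values derive from four-parameter fits of percent inhibition versus concentration. The HTRF read-out (665/620 nm ratio, 337 nm excitation) followed 16 h compound exposure of HCC827 cells, 1 h lysis and overnight room-temperature incubation with the HTRF antibodies.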

The target in another assay is T2, EGFR LTC (Homo sapiens, UniProt P00533, C797S/L858R/T790M).
T2 construct: expressed in transfected cells; host or cells: BaF3
T2 sequence (P00533 25-1210 T790M/C797S/L858R): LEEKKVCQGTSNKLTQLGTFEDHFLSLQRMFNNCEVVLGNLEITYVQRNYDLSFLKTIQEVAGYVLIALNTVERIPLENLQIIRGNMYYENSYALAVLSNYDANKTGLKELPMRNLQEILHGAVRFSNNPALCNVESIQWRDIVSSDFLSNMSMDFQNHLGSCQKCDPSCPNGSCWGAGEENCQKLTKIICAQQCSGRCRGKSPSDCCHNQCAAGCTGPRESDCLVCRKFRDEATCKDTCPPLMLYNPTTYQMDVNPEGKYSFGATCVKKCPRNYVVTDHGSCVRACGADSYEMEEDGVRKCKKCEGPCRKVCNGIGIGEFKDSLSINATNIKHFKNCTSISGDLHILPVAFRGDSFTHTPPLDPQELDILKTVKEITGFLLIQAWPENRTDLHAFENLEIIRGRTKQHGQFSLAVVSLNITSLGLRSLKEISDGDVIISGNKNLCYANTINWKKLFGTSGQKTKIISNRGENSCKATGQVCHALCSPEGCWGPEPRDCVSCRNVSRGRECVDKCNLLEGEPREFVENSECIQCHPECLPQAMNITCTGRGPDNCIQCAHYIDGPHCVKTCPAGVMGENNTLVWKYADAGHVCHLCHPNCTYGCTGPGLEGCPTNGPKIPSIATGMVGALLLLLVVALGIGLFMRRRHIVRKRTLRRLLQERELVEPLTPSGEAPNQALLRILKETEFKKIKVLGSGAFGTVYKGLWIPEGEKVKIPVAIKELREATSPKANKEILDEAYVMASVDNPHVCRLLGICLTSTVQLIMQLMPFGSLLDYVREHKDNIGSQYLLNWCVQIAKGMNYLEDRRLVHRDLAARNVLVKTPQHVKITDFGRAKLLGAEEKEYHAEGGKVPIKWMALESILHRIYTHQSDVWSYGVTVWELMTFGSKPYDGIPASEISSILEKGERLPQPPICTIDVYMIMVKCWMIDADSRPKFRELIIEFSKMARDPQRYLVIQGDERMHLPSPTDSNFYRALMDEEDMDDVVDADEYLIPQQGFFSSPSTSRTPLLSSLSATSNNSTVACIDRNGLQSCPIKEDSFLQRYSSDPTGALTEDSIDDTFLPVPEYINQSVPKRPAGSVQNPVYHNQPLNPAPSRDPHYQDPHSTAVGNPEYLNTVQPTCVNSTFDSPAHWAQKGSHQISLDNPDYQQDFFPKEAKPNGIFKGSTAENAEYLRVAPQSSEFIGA
As to the kind of experiment: Cell Degradation 3: EGFR degradation in BaF3 cells (LTC), HTRF assay. The procedure, abridged: (§1)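 BaF3 cells expressing EGFR (LTC triple mutant C797S/L858R/T790M or DTC) exposed to compounds for 16 h, 8 doses from 4-fold dilution, 0.2% DMSO. Residual EGFR quantified by HTRF in lysates (triple mutant lysate diluted 1:1); DC50 from four-parameter logistic fit.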

The next assay concerns EGFR DTC. In words: Cell Degradation 3: EGFR degradation in BaF3 cells (DTC), HTRF assay. The procedure, abridged:
as §1

Assay [2] concerns the target T3, EGFR (Homo sapiens, UniProt P00533, L858R/T790M).
T3 construct: endogenous in cells; host or cells: H1975
In words: Cell Degradation 1: EGFR degradation in H1975 cells, HTRF assay. The method in brief:
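EGFR levels were read by HTRF (337 nm excitation, 665 and 620 nm emission) in lysates of H1975 cells exposed to compound for 16 h, with antibodies incubated overnight at room temperature. Fitting percent inhibition versus concentration to a Hill equation gave DC50.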

T3 sequence (P00533 25-1210 T790M/L858R): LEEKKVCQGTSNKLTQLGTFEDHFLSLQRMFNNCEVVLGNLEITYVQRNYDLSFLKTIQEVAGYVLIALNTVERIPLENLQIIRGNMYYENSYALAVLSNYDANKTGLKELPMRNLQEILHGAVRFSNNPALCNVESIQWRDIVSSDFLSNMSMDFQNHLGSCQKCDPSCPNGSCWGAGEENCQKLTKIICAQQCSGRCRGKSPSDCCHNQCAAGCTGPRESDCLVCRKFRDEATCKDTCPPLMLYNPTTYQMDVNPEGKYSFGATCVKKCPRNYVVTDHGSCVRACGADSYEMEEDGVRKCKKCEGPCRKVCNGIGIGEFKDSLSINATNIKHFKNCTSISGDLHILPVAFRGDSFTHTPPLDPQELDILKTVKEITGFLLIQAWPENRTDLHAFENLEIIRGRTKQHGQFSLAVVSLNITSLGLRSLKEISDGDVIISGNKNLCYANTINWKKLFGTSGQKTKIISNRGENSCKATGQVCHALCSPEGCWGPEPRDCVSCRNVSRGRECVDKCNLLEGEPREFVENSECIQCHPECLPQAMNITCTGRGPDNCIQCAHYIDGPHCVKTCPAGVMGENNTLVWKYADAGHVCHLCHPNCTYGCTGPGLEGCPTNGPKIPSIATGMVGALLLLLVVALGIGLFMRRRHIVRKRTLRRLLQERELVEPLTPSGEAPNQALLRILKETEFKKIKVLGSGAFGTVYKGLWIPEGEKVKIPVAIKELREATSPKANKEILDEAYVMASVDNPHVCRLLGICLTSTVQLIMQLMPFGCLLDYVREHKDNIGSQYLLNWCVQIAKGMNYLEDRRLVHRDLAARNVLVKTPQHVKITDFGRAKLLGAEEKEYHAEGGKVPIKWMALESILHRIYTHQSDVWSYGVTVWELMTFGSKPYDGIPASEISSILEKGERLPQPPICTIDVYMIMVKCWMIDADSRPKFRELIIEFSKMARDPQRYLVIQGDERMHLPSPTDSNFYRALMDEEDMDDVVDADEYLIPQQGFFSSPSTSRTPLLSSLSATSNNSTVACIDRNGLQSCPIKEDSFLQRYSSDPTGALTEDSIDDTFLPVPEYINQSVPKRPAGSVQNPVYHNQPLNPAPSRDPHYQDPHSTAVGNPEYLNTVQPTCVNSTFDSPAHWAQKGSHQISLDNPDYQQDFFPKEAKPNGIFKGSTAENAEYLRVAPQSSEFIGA

Turning to `CS(=O)(=O)N1CCc2cccc(Nc3nc(Nc4ccc(N5CCC(N6CCN(C(=O)[C@@H]7CCN(c8ccc9c(c8)C(=O)N(C8CCC(=O)NC8=O)C9=O)C7)CC6)CC5)c(F)c4)nc4[nH]ccc34)c21` (stereo partly drawn) [Example 62, 2-(2,6-dioxopiperidin-3-yl)-5-((R)-3-(4-(1-(2-fluoro-4-((4-((1-(methylsulfonyl)indolin-7-yl)amino)-7H-pyrrolo[2,3-d]pyrimidin-2-yl)amino)phenyl)piperidin-4-yl)piperazine-1-carbonyl)pyrrolidin-1-yl)isoindoline-1,3-dione], the 50% degradation concentration (DC50) amounted to 22.1 nM on EGFR [1], 4.7 nM at EGFR LTC, 3 nM with EGFR DTC and 4.4 nM on EGFR [2].

Take `CS(=O)(=O)N1CCc2cccc(Nc3nc(Nc4ccc(N5CCC(N6CCN(CCC7CCN(c8cc(F)c(C9CCC(=O)NC9=O)c(F)c8)CC7)CC6)CC5)c(F)c4)nc4[nH]ccc34)c21` (centres unmarked) [Example 67, 3-(2,6-difluoro-4-(4-(2-(4-(1-(2-fluoro-4-((4-((1-(methylsulfonyl)indolin-7-yl)amino)-7H-pyrrolo[2,3-d]pyrimidin-2-yl)amino)phenyl)piperidin-4-yl)piperazin-1-yl)ethyl)piperidin-1-yl)phenyl)piperidine-2,6-dione]: the DC50 at EGFR [1] came to 3.5 nM; on EGFR LTC, 15.7 nM; in the assay with EGFR DTC it was 11.7 nM; on EGFR [2], 13.8 nM.

Consider `CS(=O)(=O)N1CCc2cccc(Nc3nc(Nc4ccc(N5CCC(N6CCN(CCc7cc(F)c(C8CCC(=O)NC8=O)c(F)c7)CC6)CC5)c(F)c4)nc4[nH]ccc34)c21` (centres unmarked) [Example 68, 3-(2,6-difluoro-4-(2-(4-(1-(2-fluoro-4-((4-((1-(methylsulfonyl)indolin-7-yl)amino)-7H-pyrrolo[2,3-d]pyrimidin-2-yl)amino)phenyl)piperidin-4-yl)piperazin-1-yl)ethyl)phenyl)piperidine-2,6-dione], for which the DC50 came to 17.6 nM at EGFR [1], 4.4 nM on EGFR LTC, 3 nM with EGFR DTC and 3.7 nM at EGFR [2].

Consider `CS(=O)(=O)N1CCc2cccc(Nc3nc(Nc4ccc(N5CCC(N6CCN(CC7CN(c8ccc9c(c8)C(=O)N(C8CCC(=O)NC8=O)C9=O)C7)CC6)CC5)c(F)c4)ncc3Cl)c21` (centres unmarked) [Example 76, 5-(3-((4-(1-(4-((5-chloro-4-((1-(methylsulfonyl)indolin-7-yl)amino)pyrimidin-2-yl)amino)-2-fluorophenyl)piperidin-4-yl)piperazin-1-yl)methyl)azetidin-1-yl)-2-(2,6-dioxopiperidin-3-yl)isoindoline-1,3-dione], for which the half-maximal degradation concentration (DC50) at EGFR [1] turned out to be 3.3 nM; at EGFR LTC, 8 nM; in the assay with EGFR DTC, 4.8 nM; at EGFR [2], 3.4 nM.

As for `CS(=O)(=O)N1CCc2cccc(Nc3nc(Nc4ccc(N5CCC(N6CCN(C(=O)C7CN(c8ccc9c(c8)C(=O)N(C8CCC(=O)NC8=O)C9=O)C7)CC6)CC5)c(F)c4)ncc3Cl)c21` (centres unmarked) [Example 77, 5-(3-(4-(1-(4-((5-chloro-4-((1-(methylsulfonyl)indolin-7-yl)amino)pyrimidin-2-yl)amino)-2-fluorophenyl)piperidin-4-yl)piperazine-1-carbonyl)azetidin-1-yl)-2-(2,6-dioxopiperidin-3-yl)isoindoline-1,3-dione], the DC50 at EGFR [1] turned out to be 1.7 nM; at EGFR LTC, 2.7 nM; with EGFR DTC, 1.8 nM; at EGFR [2] it was 2.3 nM.

Take `CS(=O)(=O)N1CCc2cccc(Nc3nc(Nc4ccc(N5CCC(N6CCN(CCC7CCN(c8ccc(C9CCC(=O)NC9=O)cc8)CC7)CC6)CC5)c(F)c4)ncc3Cl)c21` (centres unmarked) [Example 79, 3-(4-(4-(2-(4-(1-(4-((5-chloro-4-((1-(methylsulfonyl)indolin-7-yl)amino)pyrimidin-2-yl)amino)-2-fluorophenyl)piperidin-4-yl)piperazin-1-yl)ethyl)piperidin-1-yl)phenyl)piperidine-2,6-dione]: the DC50 is 5.5 nM at EGFR [1], 84.6 nM at EGFR LTC, 49.6 nM in the assay with EGFR DTC and 6 nM at EGFR [2].

With `CS(=O)(=O)N1CCc2cccc(Nc3nc(Nc4ccc(N5CCC(N6CCN(CCC7CCN(c8ccc(C9CCC(=O)NC9=O)c(F)c8)CC7)CC6)CC5)c(F)c4)ncc3Cl)c21` (centres unmarked) [Example 80, 3-(4-(4-(2-(4-(1-(4-((5-chloro-4-((1-(methylsulfonyl)indolin-7-yl)amino)pyrimidin-2-yl)amino)-2-fluorophenyl)piperidin-4-yl)piperazin-1-yl)ethyl)piperidin-1-yl)-2-fluorophenyl)piperidine-2,6-dione], the half-maximal degradation concentration (DC50) stood at 4.3 nM on EGFR [1], 12.2 nM on EGFR LTC, 6.5 nM in the assay on EGFR DTC and 5.5 nM at EGFR [2].

As to `CS(=O)(=O)N1CCc2cccc(Nc3nc(Nc4ccc(N5CCC(N6CCN(C(=O)[C@H]7CCN(c8ccc9c(c8)C(=O)N(C8CCC(=O)NC8=O)C9=O)C7)CC6)CC5)c(F)c4)ncc3Cl)c21` (stereo partly drawn) [Example 82, 5-((S)-3-(4-(1-(4-((5-chloro-4-((1-(methylsulfonyl)indolin-7-yl)amino)pyrimidin-2-yl)amino)-2-fluorophenyl)piperidin-4-yl)piperazine-1-carbonyl)pyrrolidin-1-yl)-2-(2,6-dioxopiperidin-3-yl)isoindoline-1,3-dione], the DC50 at EGFR [1] was 2.8 nM; at EGFR LTC, 15.1 nM; with EGFR DTC, 3.5 nM; on EGFR [2], 3.2 nM.

With `CS(=O)(=O)N1CCc2cccc(Nc3nc(Nc4ccc(N5CCC(N6CCN(C(=O)[C@@H]7CCN(c8ccc9c(c8)C(=O)N(C8CCC(=O)NC8=O)C9=O)C7)CC6)CC5)c(F)c4)ncc3Cl)c21` (stereo partly drawn) [Example 83, 5-((R)-3-(4-(1-(4-((5-chloro-4-((1-(methylsulfonyl)indolin-7-yl)amino)pyrimidin-2-yl)amino)-2-fluorophenyl)piperidin-4-yl)piperazine-1-carbonyl)pyrrolidin-1-yl)-2-(2,6-dioxopiperidin-3-yl)isoindoline-1,3-dione], the DC50 on EGFR [1] was determined as 3 nM; on EGFR LTC, 14.6 nM; with EGFR DTC, 5.9 nM; on EGFR [2], 3.2 nM.

Consider `COc1cc(N2CCC(N3CCN(CC4CN(c5ccc6c(c5)CN(C5CCC(=O)NC5=O)C6=O)C4)CC3)CC2)ccc1Nc1ncc(Cl)c(Nc2cccc3c2N(S(C)(=O)=O)CC3)n1` (centres unmarked) [Example 85, 3-(5-(3-((4-(1-(4-((5-chloro-4-((1-(methylsulfonyl)indolin-7-yl)amino)pyrimidin-2-yl)amino)-3-methoxyphenyl)piperidin-4-yl)piperazin-1-yl)methyl)azetidin-1-yl)-1-oxoisoindolin-2-yl)piperidine-2,6-dione], for which the DC50 on EGFR [1] was 2.9 nM; at EGFR LTC it was 2.8 nM; in the assay with EGFR DTC, 1.8 nM; at EGFR [2] it was 3 nM.

In the case of `COc1cc(N2CCC(N3CCN(CC4CN(c5ccc6c(c5)C(=O)N(C5CCC(=O)NC5=O)C6=O)C4)CC3)CC2)ccc1Nc1ncc(Cl)c(Nc2cccc3c2N(S(C)(=O)=O)CC3)n1` (centres unmarked) [Example 86, 5-(3-((4-(1-(4-((5-chloro-4-((1-(methylsulfonyl)indolin-7-yl)amino)pyrimidin-2-yl)amino)-3-methoxyphenyl)piperidin-4-yl)piperazin-1-yl)methyl)azetidin-1-yl)-2-(2,6-dioxopiperidin-3-yl)isoindoline-1,3-dione], the 50% degradation concentration (DC50) is 2.7 nM at EGFR [1], 16.2 nM at EGFR LTC, 13 nM in the assay with EGFR DTC and 1.8 nM at EGFR [2].

Regarding `COc1cc(N2CCC(N3CCN(C(=O)[C@H]4CCN(c5ccc6c(c5)C(=O)N(C5CCC(=O)NC5=O)C6=O)C4)CC3)CC2)ccc1Nc1ncc(Cl)c(Nc2cccc3c2N(S(C)(=O)=O)CC3)n1` (stereo partly drawn) [Example 87, 5-((S)-3-(4-(1-(4-((5-chloro-4-((1-(methylsulfonyl)indolin-7-yl)amino)pyrimidin-2-yl)amino)-3-methoxyphenyl)piperidin-4-yl)piperazine-1-carbonyl)pyrrolidin-1-yl)-2-(26-dioxopiperidin-3-yl)isoindoline-1,3-dione], the DC50 on EGFR [1] amounted to 3.1 nM; at EGFR LTC, 16.5 nM; in the assay on EGFR DTC, 2.4 nM; on EGFR [2], 3.5 nM.

Regarding `COc1cc(N2CCC(N3CCN(C(=O)[C@@H]4CCN(c5ccc6c(c5)C(=O)N(C5CCC(=O)NC5=O)C6=O)C4)CC3)CC2)ccc1Nc1ncc(Cl)c(Nc2cccc3c2N(S(C)(=O)=O)CC3)n1` (stereo partly drawn) [Example 88, 5-((R)-3-(4-(1-(4-((5-chloro-4-((1-(methylsulfonyl)indolin-7-yl)amino)pyrimidin-2-yl)amino)-3-methoxyphenyl)piperidin-4-yl)piperazine-1-carbonyl)pyrrolidin-1-yl)-2-(2,6-dioxopiperidin-3-yl)isoindoline-1,3-dione], the half-maximal degradation concentration (DC50) came out at 2.7 nM on EGFR [1], 43.3 nM on EGFR LTC, 15.6 nM in the assay with EGFR DTC and 4.2 nM on EGFR [2].

Regarding `COc1cc(N2CCC(N3CCN(CCC4CCN(c5ccc6c(c5)C(=O)N(C5CCC(=O)NC5=O)C6=O)CC4)CC3)CC2)c(C)cc1Nc1ncc(Br)c(Nc2cccc3c2N(S(C)(=O)=O)CC3)n1` (centres unmarked) [Example 91, 5-(4-(2-(4-(1-(4-((5-bromo-4-((1-(methylsulfonyl)indolin-7-yl)amino)pyrimidin-2-yl)amino)-5-methoxy-2-methylphenyl)piperidin-4-yl)piperazin-1-yl)ethyl)piperidin-1-yl)-2-(2,6-dioxopiperidin-3-yl)isoindoline-1,3-dione], the half-maximal degradation concentration (DC50) at EGFR [1] stood at 6.4 nM; at EGFR LTC it was 39.9 nM; in the assay with EGFR DTC, 14.9 nM; on EGFR [2], 3.5 nM.
